Consider two compounds from US5948817A, “Polycyclic ethyl alkylamide melatonergic agents” (Bristol-Myers Squibb Company, priority 1998, dated 1999).

In this assay the target is T1, melatonin ML1A receptor (Homo sapiens, UniProt P48039).
T1 construct: expressed in transfected cells; membrane homogenates
In words: Melatonergic binding (2-[125I]-iodomelatonin, membrane homogenates of NIH-3T3 cells expressing ML1A receptor). To be noted: 37° C. for 1 hour, NIH-3T3 cell membranes, read-out: IC50, binding affinity for melatonin receptors. An excerpt:
The compounds of the invention are melatonergic agents. […] Further, the compounds are agonists as determined by their ability, like melatonin, to block the forskolin-stimulated accumulation of cAMP in certain cells. Due to these properties, the compounds and compositions of the invention should be useful as sedatives, chronobiotic agents, anxiolytics, antipsychotics, analgesics, and the like. Specifically, these agents should find use in the treatment of stress, sleep disorders, seasonal depression, appetite regulation, shifts in circadian cycles, melancholia, jet-lag, glaucoma, reproductive disorders, cancer, premenstrual syndrome, immune disorders, inflammatory diseases, neuroendocrine disorders and related conditions.
The melatonergic binding properties of compounds of the invention were measured using the following procedure.
(a) TME=50 mM Tris buffer containing 12.5 mM MgCl2, and 2 mM EDTA, pH 7.4 at 37° C. with concentrated HCl.
(b) Wash buffer: 20 mM Tris base containing 2 mM MgCl2. pH 7.4 at room temperature.
(c) 10^-4 M melatonin (10^-5 M final concentration).
(d) 2-[^125 I]-iodomelatonin, […] final concentration.
The melatonin ML1A receptor cDNA was subcloned into pcDNA3 and introduced into NIH-3T3 cells using Lipofectamine. […]

Molecules are shown by their SMILES.

T1 sequence (P48039 whole entry): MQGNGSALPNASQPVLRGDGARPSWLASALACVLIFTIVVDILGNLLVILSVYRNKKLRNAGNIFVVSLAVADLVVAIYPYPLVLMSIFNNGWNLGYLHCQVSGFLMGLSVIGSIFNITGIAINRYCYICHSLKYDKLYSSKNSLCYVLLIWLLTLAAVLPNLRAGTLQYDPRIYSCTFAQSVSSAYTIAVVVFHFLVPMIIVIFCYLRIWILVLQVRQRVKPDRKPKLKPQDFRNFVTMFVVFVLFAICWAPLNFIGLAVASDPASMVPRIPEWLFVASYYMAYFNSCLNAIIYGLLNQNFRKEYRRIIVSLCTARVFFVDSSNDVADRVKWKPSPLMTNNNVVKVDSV

On to `CCC(=O)NCCC1c2cc(OC)ccc2-c2ccc3c(c21)OCO3` (centres unmarked) [Example 2, N-[2-(8-Methoxy-10H-fluoreno[1,2-d]-1,3-dioxol-10-yl)ethyl]propanamide], for which the IC50 (as a rule, the concentration at which inhibition is half-maximal) is less than 25 nM.

With `CCC(=O)NCCC1c2ccccc2-c2ccc3c(c21)CCO3` (centres unmarked) [Example 1, N-[2-(2,10-dihydro-1H-fluoreno[2,1-b]furan-10-yl)ethyl]propanamide], the IC50 is less than 25 nM.
